Results: paper PMC4303209, “A novel phosphatidylinositol 3-kinase (PI3K) inhibitor directs a potent FOXO-dependent, p53-independent cell cycle arrest phenotype characterized by the differential induction of a subset of FOXO-regulated genes” (Breast Cancer Research : BCR, 2014)

System: MCF-7 breast cancer cells
Experiment: Microarray gene expression analysis (Agilent whole human genome 4 x 44K; compound vs DMSO, LIMMA log2 fold change)
Assay type: cell-based
Conditions: cell cycle genes

Oc1cccc(-c2nc(N3CCOCC3)c3oc4ncccc4c3n2)c1 [PI-103]
MLF1 log2FC (Gene 4291): 0.58
MLH1 log2FC (Gene 4292): 0.34
MAP3K11 log2FC (Gene 4296): -0.58
MNAT1 log2FC (Gene 4331): 0.59
MNT log2FC (Gene 4335): 1.54
MOS log2FC (Gene 4342): -0.08
MRE11A log2FC (Gene 4361): 0.27
MSH2 log2FC (Gene 4436): 0.79
MSH3 log2FC (Gene 4437): 0.54
MSH4 log2FC (Gene 4438): -0.0458
MSX1 log2FC (Gene 4487): -0.24
MSX2 log2FC (Gene 4488): 0.05
MUC1 log2FC (Gene 4582): -0.28
TRIM37 log2FC (Gene 4591): 0.67
MX2 log2FC (Gene 4600): -0.08
MYB log2FC (Gene 4602): 0.51
MYBL2 log2FC (Gene 4605): -0.39
MYC log2FC (Gene 4609): 0.42
GADD45B log2FC (Gene 4616): 0.86
MYH9 log2FC (Gene 4627): -0.23
MYH10 log2FC (Gene 4628): -0.0425
PPP1R12A log2FC (Gene 4659): 0.42
PPP1R12B log2FC (Gene 4660): 0.33
NUBP1 log2FC (Gene 4682): -0.22
NBN log2FC (Gene 4683): 0.62
NEDD9 log2FC (Gene 4739): 0.0368
NEK1 log2FC (Gene 4750): 0.57
NEK2 log2FC (Gene 4751): 1.00
NEUROD1 log2FC (Gene 4760): 0.04
NGFR log2FC (Gene 4804): -0.07
NOTCH2 log2FC (Gene 4853): 0.27
NPAT log2FC (Gene 4863): 0.48
NPM1 log2FC (Gene 4869): 0.28
NUP88 log2FC (Gene 4927): 0.08
ODF2 log2FC (Gene 4957): -0.13
OSM log2FC (Gene 5008): -0.00804
OVOL1 log2FC (Gene 5017): -0.06
PAFAH1B1 log2FC (Gene 5048): 0.72
PAK1 log2FC (Gene 5058): 0.07
PAK3 log2FC (Gene 5063): 0.09
PCM1 log2FC (Gene 5108): 0.63
PCNT log2FC (Gene 5116): 0.45
PDGFB log2FC (Gene 5155): -0.24
PDGFRB log2FC (Gene 5159): 0.0243
PGGT1B log2FC (Gene 5229): -0.28
ABCB1 log2FC (Gene 5243): -0.02
PIK3C3 log2FC (Gene 5289): 1.00
PIM1 log2FC (Gene 5292): 1.29
PIN1 log2FC (Gene 5300): -0.0472
PKD1 log2FC (Gene 5310): 0.37
PKD2 log2FC (Gene 5311): 0.13
PKHD1 log2FC (Gene 5314): -0.09
PLAGL1 log2FC (Gene 5325): 0.32
PML log2FC (Gene 5371): -0.41
PMS1 log2FC (Gene 5378): 0.55
PMS2 log2FC (Gene 5395): 0.12
POLD1 log2FC (Gene 5424): 0.33
POLE log2FC (Gene 5426): -0.10
PPAT log2FC (Gene 5471): 0.07
PPM1A log2FC (Gene 5494): 0.27
PPP1CB log2FC (Gene 5500): 0.81
PPP1CC log2FC (Gene 5501): 0.33
PPP2R1A log2FC (Gene 5518): 0.06
PPP2R2A log2FC (Gene 5520): -0.06
PPP2R4 log2FC (Gene 5524): -0.32
PPP2R5C log2FC (Gene 5527): 0.78
PPP3CA log2FC (Gene 5530): 0.45
PPP5C log2FC (Gene 5536): -0.24
PPP6C log2FC (Gene 5537): -0.35
PRCC log2FC (Gene 5546): -0.66
PRIM1 log2FC (Gene 5557): 0.46
PRKAA1 log2FC (Gene 5562): 0.30
PRKAA2 log2FC (Gene 5563): 0.07
PRKAB1 log2FC (Gene 5564): 0.25
PRKAB2 log2FC (Gene 5565): 0.81
PRKACA log2FC (Gene 5566): -0.35
PKIA log2FC (Gene 5569): -0.29
PRKAG1 log2FC (Gene 5571): 0.09
PRKAR1A log2FC (Gene 5573): 0.45
PRKAR2B log2FC (Gene 5577): 0.43
PRKCA log2FC (Gene 5578): -0.16
PRKCD log2FC (Gene 5580): 0.12
PRKCE log2FC (Gene 5581): -0.00329
PKN2 log2FC (Gene 5586): 0.51
MAPK1 log2FC (Gene 5594): 0.0165
MAPK3 log2FC (Gene 5595): -0.12
MAPK13 log2FC (Gene 5603): -0.17
MAP2K1 log2FC (Gene 5604): -0.23
MAP2K6 log2FC (Gene 5608): 0.36
PROX1 log2FC (Gene 5629): -0.08
KLK10 log2FC (Gene 5655): -0.42
PSMA1 log2FC (Gene 5682): -0.03
PSMA4 log2FC (Gene 5685): 0.47
PSMA6 log2FC (Gene 5687): 0.07
PSMB1 log2FC (Gene 5689): 0.00908
PSMB2 log2FC (Gene 5690): -0.43
PSMB3 log2FC (Gene 5691): 0.0534
PSMB5 log2FC (Gene 5693): -0.22
PSMB6 log2FC (Gene 5694): -0.08
PSMB8 log2FC (Gene 5696): -0.00568
PSMC1 log2FC (Gene 5700): -0.00867
PSMC2 log2FC (Gene 5701): 0.28
PSMC5 log2FC (Gene 5705): -0.31
PSMC6 log2FC (Gene 5706): 0.52
PSMD2 log2FC (Gene 5708): 0.00374
PSMD3 log2FC (Gene 5709): -0.0745
PSMD4 log2FC (Gene 5710): -0.0364
PSMD5 log2FC (Gene 5711): 0.19
PSMD7 log2FC (Gene 5713): 0.00364
PSMD9 log2FC (Gene 5715): -0.40
PSMD12 log2FC (Gene 5718): -0.77
PSMD13 log2FC (Gene 5719): -0.17
PSME2 log2FC (Gene 5721): 0.04
PTEN log2FC (Gene 5728): 0.96
PTGS2 log2FC (Gene 5743): -0.0533
PTPN3 log2FC (Gene 5774): -0.31
PTPN6 log2FC (Gene 5777): 0.26
PTPRC log2FC (Gene 5788): -0.0261
PTPRK log2FC (Gene 5796): 0.72
RAD1 log2FC (Gene 5810): -0.29
RAD9A log2FC (Gene 5883): 0.68
RAD17 log2FC (Gene 5884): 1.15
RAD21 log2FC (Gene 5885): 0.83
RAD51 log2FC (Gene 5888): -0.29
RAD52 log2FC (Gene 5893): 0.14
RAN log2FC (Gene 5901): -0.14
RANBP1 log2FC (Gene 5902): -0.10
RANBP2 log2FC (Gene 5903): 0.42
RARA log2FC (Gene 5914): -0.31
RASA1 log2FC (Gene 5921): 0.47
RB1 log2FC (Gene 5925): 0.67
RBL2 log2FC (Gene 5934): 0.41
RFC1 log2FC (Gene 5981): 1.04
RFC2 log2FC (Gene 5982): -0.10
RFC5 log2FC (Gene 5985): 0.15
RGS2 log2FC (Gene 5997): -2.43
RHEB log2FC (Gene 6009): 0.40
RNF2 log2FC (Gene 6045): -0.11
RNF4 log2FC (Gene 6047): -0.48
RPA3 log2FC (Gene 6119): 0.23
RPS6KA2 log2FC (Gene 6196): 0.19
RPS6KA3 log2FC (Gene 6197): 0.27
RPS15A log2FC (Gene 6210): 0.48
RPS27 log2FC (Gene 6232): 0.35
RPS27A log2FC (Gene 6233): 0.45
RRM1 log2FC (Gene 6240): 0.36
RRM2 log2FC (Gene 6241): -0.81
SETMAR log2FC (Gene 6419): -0.16
SIAH2 log2FC (Gene 6478): -0.48
SKP2 log2FC (Gene 6502): -1.28
SMARCA4 log2FC (Gene 6597): -0.39
SOX2 log2FC (Gene 6657): 0.23
SOX9 log2FC (Gene 6662): -2.01
SPAST log2FC (Gene 6683): 0.37
SPTBN1 log2FC (Gene 6711): 0.11
SRPK2 log2FC (Gene 6733): 0.78
TRIM21 log2FC (Gene 6737): 0.02
